{"source": "patent US9447092B2", "about": "“Pharmaceutically active compounds” (CANCER RESEARCH TECHNOLOGY LIMITED, priority 2012, dated 2016)", "key": {"[1]": {"assay": "Human liver microsomal stability", "assay_type": "in vitro ADME", "conditions": "human liver microsomes, after a 30 min incubation", "procedure": "(§1) Compounds (10 μM) were incubated with mixed gender pooled human liver microsomes (1 mg·mL^−1) protein in the presence of NADPH (1 mM), UDPGA (2.5 mM) and MgCl2 (3 mM) in phosphate buffered saline (10 mM) at 37° C. Incubations were conducted for 0 and 30 minutes. Control incubations were generated by the omission of NADPH and UDPGA from the incubation reaction. The percentage compound remaining was determined after analysis by LCMS."}, "[2]": {"test_system": "SW620 human colon carcinoma xenograft", "conditions": "literature (ref 26); cited from earlier work"}, "[3]": {"target": "CYP2D6 (Homo sapiens (Human), UniProt P10635)", "sequence (P10635 whole entry)": "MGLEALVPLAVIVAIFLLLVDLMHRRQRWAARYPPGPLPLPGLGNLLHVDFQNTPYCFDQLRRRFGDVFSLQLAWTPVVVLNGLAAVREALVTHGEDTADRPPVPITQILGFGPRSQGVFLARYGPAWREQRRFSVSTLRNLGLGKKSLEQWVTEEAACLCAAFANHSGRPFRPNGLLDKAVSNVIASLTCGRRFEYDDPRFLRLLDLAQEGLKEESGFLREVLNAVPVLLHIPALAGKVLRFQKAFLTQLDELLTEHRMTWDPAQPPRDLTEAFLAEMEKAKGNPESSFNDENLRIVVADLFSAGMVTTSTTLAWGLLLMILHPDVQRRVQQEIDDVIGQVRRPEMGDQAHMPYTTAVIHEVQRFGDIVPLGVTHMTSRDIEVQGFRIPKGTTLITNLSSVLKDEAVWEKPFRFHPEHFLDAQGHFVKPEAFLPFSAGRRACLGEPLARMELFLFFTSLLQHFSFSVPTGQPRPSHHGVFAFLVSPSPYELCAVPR", "assay": "Inhibition of CYP isozymes in human liver microsomes, CYP2D6"}, "[4]": {"target": "CYP2C19 (Homo sapiens (Human), UniProt P33261)", "sequence (P33261 whole entry)": "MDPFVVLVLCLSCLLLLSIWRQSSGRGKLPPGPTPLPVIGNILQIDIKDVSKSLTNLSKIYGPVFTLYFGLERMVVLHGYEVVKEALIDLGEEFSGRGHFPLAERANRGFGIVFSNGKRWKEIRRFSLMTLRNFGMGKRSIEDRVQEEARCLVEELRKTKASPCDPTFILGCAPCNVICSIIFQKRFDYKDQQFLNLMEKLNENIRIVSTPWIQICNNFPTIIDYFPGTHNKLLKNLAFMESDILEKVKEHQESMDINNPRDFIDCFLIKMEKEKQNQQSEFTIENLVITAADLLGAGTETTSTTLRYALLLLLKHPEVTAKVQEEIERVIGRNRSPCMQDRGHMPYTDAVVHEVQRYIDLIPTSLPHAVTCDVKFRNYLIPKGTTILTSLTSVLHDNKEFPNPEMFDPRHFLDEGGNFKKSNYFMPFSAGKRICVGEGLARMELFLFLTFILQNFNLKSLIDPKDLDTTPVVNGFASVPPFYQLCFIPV", "assay": "Inhibition of CYP isozymes in human liver microsomes, CYP2C19"}, "[5]": {"target": "CYP2A6 (Homo sapiens (Human), UniProt P11509)", "sequence (P11509 whole entry)": "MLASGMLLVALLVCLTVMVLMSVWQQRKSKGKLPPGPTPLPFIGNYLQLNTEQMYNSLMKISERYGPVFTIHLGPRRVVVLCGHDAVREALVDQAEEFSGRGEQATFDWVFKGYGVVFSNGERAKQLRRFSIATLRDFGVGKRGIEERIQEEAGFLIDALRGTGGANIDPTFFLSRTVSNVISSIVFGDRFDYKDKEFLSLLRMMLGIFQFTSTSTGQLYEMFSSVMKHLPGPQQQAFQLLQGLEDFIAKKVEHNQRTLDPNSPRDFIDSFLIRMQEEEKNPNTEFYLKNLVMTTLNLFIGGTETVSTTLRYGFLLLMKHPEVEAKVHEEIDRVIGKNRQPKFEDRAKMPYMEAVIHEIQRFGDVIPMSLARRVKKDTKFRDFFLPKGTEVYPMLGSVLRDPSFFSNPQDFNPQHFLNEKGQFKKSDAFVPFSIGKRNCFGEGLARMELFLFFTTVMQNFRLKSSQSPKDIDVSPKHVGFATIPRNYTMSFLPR", "assay": "Inhibition of CYP isozymes in human liver microsomes, CYP2A6", "conditions": "read-out: Estimated IC50 CYP2A6, probe Coumarin"}, "[6]": {"target": "T1, hERG (Homo sapiens (Human), UniProt Q12809)", "T1 sequence (Q12809 whole entry)": "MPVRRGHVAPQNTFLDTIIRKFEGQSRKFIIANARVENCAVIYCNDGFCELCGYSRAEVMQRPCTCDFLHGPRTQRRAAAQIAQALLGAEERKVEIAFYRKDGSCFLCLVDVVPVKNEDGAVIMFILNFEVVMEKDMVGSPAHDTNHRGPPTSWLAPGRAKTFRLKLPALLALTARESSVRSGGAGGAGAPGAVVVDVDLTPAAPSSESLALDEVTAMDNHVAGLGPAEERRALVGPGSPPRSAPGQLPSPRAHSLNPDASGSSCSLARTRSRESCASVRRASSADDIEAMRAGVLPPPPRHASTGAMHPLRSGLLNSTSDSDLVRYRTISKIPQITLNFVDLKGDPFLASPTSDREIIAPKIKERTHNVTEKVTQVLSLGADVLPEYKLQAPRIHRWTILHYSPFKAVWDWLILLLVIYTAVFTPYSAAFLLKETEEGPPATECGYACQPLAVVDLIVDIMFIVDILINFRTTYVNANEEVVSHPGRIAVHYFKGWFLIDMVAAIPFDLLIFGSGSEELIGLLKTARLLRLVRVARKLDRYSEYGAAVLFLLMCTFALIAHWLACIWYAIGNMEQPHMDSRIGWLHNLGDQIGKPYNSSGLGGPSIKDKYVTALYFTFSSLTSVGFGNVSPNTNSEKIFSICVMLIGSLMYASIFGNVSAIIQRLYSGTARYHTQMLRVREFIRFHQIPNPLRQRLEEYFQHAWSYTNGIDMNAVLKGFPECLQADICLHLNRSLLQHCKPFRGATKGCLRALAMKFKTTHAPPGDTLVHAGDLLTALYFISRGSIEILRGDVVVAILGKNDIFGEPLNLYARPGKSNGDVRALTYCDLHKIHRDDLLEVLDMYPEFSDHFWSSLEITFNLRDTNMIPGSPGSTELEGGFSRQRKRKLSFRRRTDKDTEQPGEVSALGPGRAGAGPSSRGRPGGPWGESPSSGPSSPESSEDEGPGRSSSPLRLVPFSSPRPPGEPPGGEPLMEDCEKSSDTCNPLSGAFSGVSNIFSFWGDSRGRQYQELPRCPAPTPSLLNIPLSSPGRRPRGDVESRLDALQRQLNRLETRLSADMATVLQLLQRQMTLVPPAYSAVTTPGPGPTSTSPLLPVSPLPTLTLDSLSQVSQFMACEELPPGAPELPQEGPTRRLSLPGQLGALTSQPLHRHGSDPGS"}, "[7]": {"target": "CYP3A4 (Homo sapiens (Human), UniProt P08684)", "sequence (P08684 whole entry)": "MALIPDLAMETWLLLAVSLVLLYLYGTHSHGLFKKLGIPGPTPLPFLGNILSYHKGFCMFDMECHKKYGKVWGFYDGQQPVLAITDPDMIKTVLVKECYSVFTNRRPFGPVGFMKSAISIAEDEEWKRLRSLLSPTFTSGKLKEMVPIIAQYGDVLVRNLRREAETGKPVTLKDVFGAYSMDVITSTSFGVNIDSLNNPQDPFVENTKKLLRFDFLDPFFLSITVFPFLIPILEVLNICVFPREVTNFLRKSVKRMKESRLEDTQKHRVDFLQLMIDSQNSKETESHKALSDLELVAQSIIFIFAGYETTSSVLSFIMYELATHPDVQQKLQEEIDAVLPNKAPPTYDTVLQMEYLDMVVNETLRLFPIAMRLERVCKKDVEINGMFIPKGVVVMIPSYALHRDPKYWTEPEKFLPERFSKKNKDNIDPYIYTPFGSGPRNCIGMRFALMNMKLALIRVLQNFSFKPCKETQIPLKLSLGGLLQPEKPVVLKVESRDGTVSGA", "assay": "Inhibition of CYP isozymes in human liver microsomes, CYP3A4", "conditions": "read-out: Estimated IC50 CYP3A4, probe Midazolam"}, "[8]": {"target": "Aurora-A (Homo sapiens (Human), UniProt O14965)", "sequence (O14965 whole entry)": "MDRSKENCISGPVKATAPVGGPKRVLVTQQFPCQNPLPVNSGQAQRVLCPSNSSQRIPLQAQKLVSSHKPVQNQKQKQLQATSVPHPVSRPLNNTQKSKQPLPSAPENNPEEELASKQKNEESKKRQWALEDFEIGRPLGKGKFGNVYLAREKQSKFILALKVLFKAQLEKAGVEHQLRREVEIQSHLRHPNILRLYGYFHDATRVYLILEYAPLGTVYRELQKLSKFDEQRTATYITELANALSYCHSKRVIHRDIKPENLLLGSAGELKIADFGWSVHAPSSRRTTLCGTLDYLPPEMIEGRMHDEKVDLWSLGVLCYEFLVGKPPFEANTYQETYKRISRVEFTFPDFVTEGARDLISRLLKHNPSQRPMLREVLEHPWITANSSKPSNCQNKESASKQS", "conditions": "read-out: Aurora-A IC50; biochemical assay", "procedure": "Aurora kinase assays: Aurora kinase IC50 values were determined as previously described.^26, 36"}, "[9]": {"target": "CYP1A2 (Homo sapiens (Human), UniProt P05177)", "sequence (P05177 whole entry)": "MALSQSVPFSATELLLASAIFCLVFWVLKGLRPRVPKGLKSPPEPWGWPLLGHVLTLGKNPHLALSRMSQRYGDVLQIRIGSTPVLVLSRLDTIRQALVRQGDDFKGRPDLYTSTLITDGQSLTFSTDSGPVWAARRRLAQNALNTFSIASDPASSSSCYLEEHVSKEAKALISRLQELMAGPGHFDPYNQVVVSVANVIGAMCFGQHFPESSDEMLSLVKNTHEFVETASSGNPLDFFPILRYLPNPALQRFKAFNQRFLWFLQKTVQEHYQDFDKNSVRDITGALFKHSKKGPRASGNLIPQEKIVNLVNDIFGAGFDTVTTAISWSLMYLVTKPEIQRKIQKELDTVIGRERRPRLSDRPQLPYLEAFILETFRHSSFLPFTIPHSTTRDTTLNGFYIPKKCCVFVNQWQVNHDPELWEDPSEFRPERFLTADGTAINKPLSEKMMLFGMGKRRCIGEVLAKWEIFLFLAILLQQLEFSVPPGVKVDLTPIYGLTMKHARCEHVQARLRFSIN", "assay": "Inhibition of CYP isozymes in human liver microsomes, CYP1A2"}, "[10]": {"target": "CYP2C9 (Homo sapiens (Human), UniProt P11712)", "sequence (P11712 whole entry)": "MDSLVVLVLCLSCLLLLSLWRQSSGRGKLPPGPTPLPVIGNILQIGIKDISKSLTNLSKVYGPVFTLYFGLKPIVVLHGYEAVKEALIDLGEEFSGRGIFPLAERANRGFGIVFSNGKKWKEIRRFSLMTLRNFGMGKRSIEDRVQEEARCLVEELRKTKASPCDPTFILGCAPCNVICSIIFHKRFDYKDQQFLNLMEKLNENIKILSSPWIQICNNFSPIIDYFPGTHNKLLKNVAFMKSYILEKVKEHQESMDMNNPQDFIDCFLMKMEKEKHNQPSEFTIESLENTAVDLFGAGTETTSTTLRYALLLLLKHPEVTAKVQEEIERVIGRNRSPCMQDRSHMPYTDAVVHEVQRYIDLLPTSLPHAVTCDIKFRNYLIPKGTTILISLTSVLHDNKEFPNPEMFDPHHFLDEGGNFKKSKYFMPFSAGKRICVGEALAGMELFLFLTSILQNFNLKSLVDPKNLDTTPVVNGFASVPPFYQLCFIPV", "assay": "Inhibition of CYP isozymes in human liver microsomes, CYP2C9"}, "[11]": {"target": "FLT3 (Homo sapiens (Human), UniProt P36888)", "assay": "KINOMEScan FLT3", "assay_type": "binding", "conditions": "1 μM primary screening", "procedure": "(§2) Kinase selectivity profiling: Kinase profiling using the KINOMEScan™ technology and Kd determinations were performed by KINOMEscan, a Division of DiscoveRx Corporation, San Diego, Calif., USA; www.kinomescan.com."}, "[12]": {"target": "FLT3-ITD (Homo sapiens, UniProt P36888)", "assay": "KINOMEScan FLT3-ITD", "assay_type": "binding", "conditions": "1 μM primary screening", "procedure": "as §2"}, "[13]": {"target": "Aurora-B (Homo sapiens (Human), UniProt Q96GD4)", "sequence (Q96GD4 whole entry)": "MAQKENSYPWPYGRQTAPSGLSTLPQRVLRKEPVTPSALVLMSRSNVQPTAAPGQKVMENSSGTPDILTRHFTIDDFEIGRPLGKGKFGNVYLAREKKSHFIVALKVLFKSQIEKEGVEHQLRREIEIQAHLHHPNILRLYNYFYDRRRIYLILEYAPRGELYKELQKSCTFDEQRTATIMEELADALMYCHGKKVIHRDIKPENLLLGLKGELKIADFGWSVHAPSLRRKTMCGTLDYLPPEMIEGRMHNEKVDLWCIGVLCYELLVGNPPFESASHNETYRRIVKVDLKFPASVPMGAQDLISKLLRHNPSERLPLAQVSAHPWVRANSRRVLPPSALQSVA", "assay": "KINOMEScan Aurora-B", "assay_type": "binding", "conditions": "read-out: % control Aurora-B", "procedure": "as §2"}, "[14]": {"test_system": "MV4-11 human tumour xenografts", "assay": "Human tumour xenograft efficacy study (MV4-11)", "assay_type": "in vivo", "source_text": "Brit J Cancer 102: 1555-1577, 2010."}, "[15]": {"assay": "In vivo full PK in mouse"}, "[16]": {"test_system": "phosphorylation of STAT5 at Y694", "assay": "4-day PK/PD study: STAT5 phosphorylation in MV4-11 xenografts", "assay_type": "in vivo, mouse", "conditions": "50 and 100 mg/kg oral twice daily, 4 days", "procedure": "(§3) Tumour samples were obtained 2 h after the final dose. Total histone H3, total Stat5 and GAPDH were used as loading controls."}, "[17]": {"test_system": "442-kinase panel (386 non-mutant kinases)", "assay": "KINOMEScan kinase selectivity profiling, 442-kinase panel", "assay_type": "binding", "conditions": "1 μM; >90% competition", "procedure": "as §2"}, "[18]": {"assay": "Log D measurement", "assay_type": "physicochemical", "conditions": "pH 7.4, experimentally determined value", "procedure": "Physicochemical properties: Log D and pKa measurements were performed by Pharmorphix® Solid State Services, Member of the Sigma-Aldrich Group, Cambridge, UK."}, "[19]": {"assay": "Mouse liver microsomal stability", "assay_type": "in vitro ADME", "conditions": "mouse liver microsomes, after a 30 min incubation", "procedure": "as §1, with “male CD1 mouse” for “mixed gender pooled human”"}, "[20]": {"test_system": "histone H-3 phosphorylation at S10", "assay": "4-day PK/PD study: histone H-3 phosphorylation in MV4-11 xenografts", "assay_type": "in vivo, mouse", "conditions": "50 and 100 mg/kg oral twice daily, 4 days", "procedure": "as §3"}, "[21]": {"target": "FLT3(D835Y) (Homo sapiens (Human), UniProt P36888, D835Y)", "assay": "KINOMEScan FLT3(D835Y)", "assay_type": "binding", "conditions": "1 μM primary screening", "procedure": "as §2"}, "[22]": {"target": "FLT3(D835H) (Homo sapiens (Human), UniProt P36888, D835H)", "assay": "KINOMEScan FLT3(D835H)", "assay_type": "binding", "conditions": "1 μM primary screening", "procedure": "as §2"}, "[23]": {"test_system": "HCT116 human colon carcinoma", "assay": "Cell viability assay, HCT116", "assay_type": "cell-based", "conditions": "HCT-116"}, "[24]": {"target": "T1, hERG", "assay": "hERG inhibition (cell-based electrophysiology, hERG tail current)"}}, "note": "“And” between values parts separate entries of the source, which are not always exact repeats. Equal values may be shown once. Read-outs that look alike come from different tables or passages of the source.", "data": [{"compound": "Cc1cc(CN2CCN(c3c(Br)cnc4nc(-c5ccc(N6CCN(C)CC6)cc5)[nH]c34)CC2)no1", "note": "[CCT137690, reference compound]", "values": [{"measurement": "HLM: Percentage of parent compound metabolised", "setting": "[1]", "value": 86, "unit": "%"}, {"measurement": "growth of a SW620 human colon carcinoma xenograft in vivo", "setting": "[2]", "value": "inhibits the growth"}]}, {"compound": "Cn1cc(-c2nc3c(N4CCN(Cc5cccnc5)CC4)c(Br)cnc3[nH]2)cn1", "note": "[Comparator 1, 6-bromo-2-(1-methyl-1H-pyrazol-4-yl)-7-(4-(pyridine-3-ylmethyl)piperazin-1-yl)-3H-imidazo[4,5-b]pyridine]", "values": [{"measurement": "IC50", "setting": "[3]", "value": "1 to 10", "unit": "µM"}, {"measurement": "IC50", "setting": "[4]", "value": "10 to 50", "unit": "µM"}, {"measurement": "IC50", "setting": "[5]", "value": "> 50", "unit": "µM"}, {"measurement": "IC50", "setting": "[6]", "value": 5.5, "unit": "µM"}, {"measurement": "IC50", "setting": "[7]", "value": "< 1", "unit": "µM"}, {"measurement": "IC50", "setting": "[8]", "value": 32, "unit": "nM"}, {"measurement": "IC50", "setting": "[9]", "value": "10 to 50", "unit": "µM"}, {"measurement": "IC50", "setting": "[10]", "value": "10 to 50", "unit": "µM"}]}, {"compound": "Cc1nn(C)c(C)c1-c1nc2c(N3CCN(Cc4cccnc4)CC3)c(Br)cnc2[nH]1", "note": "[Comparator 2, 6-bromo-7-(4-(pyridine-3-ylmethyl)piperazin-1-yl)-2-(1,3,5-trimethyl-1H-pyrazol-4-yl)-3H-imidazo[4,5-b]pyridine]", "values": [{"measurement": "IC50", "setting": "[3]", "value": "10 to 50", "unit": "µM"}, {"measurement": "IC50", "setting": "[4]", "value": "10 to 50", "unit": "µM"}, {"measurement": "IC50", "setting": "[5]", "value": "> 50", "unit": "µM"}, {"measurement": "IC50", "setting": "[6]", "value": 10.8, "unit": "µM"}, {"measurement": "IC50", "setting": "[7]", "value": "< 1", "unit": "µM"}, {"measurement": "IC50", "setting": "[8]", "value": 300, "unit": "nM"}, {"measurement": "IC50", "setting": "[10]", "value": "10 to 50", "unit": "µM"}]}, {"compound": "Cc1nn(C)cc1-c1nc2c(N3CCN(Cc4ccc(Cl)cc4)CC3)c(Cl)cnc2[nH]1", "note": "[Example 1, 6-Chloro-7-(4-(4-chlorobenzyl)piperazin-1-yl)-2-(1,3-dimethyl-1H-pyrazol-4-yl)-3H-imidazo[4,5-b]pyridine]", "values": [{"measurement": "competition for FLT3 kinase", "setting": "[11]", "value": "greater than 94%"}, {"measurement": "competition for FLT3-ITD", "setting": "[12]", "value": "greater than 94%"}, {"measurement": "remaining binding at 1 µM", "setting": "[13]", "value": 1, "unit": "%"}, {"measurement": "IC50", "setting": "[5]", "value": "> 50", "unit": "µM"}, {"measurement": "day single mice were culled (mean tumour volume increased by over 500%)", "setting": "[14]; 50 mg/kg", "value": "28 days and 31 days"}, {"measurement": "tumour volume, % of the initial volume after 11 days", "setting": "[14]; 50 mg/kg dosing schedule", "value": 42, "unit": "%"}, {"measurement": "day single mice were culled (mean tumour volume increased by over 500%)", "setting": "[14]; 100 mg/kg", "value": "46 days and 56 days"}, {"measurement": "tumours when therapy was discontinued after 11 days", "setting": "[14]; 100 mg/kg dosing schedule", "value": "undetectable"}, {"measurement": "toxicity as defined by body weight loss", "setting": "[14]; athymic mice, oral 50 and 100 mg/kg", "value": "no observed toxicity"}, {"measurement": "growth of MV4-11 human tumour xenografts", "setting": "[14]; athymic mice, oral 50 and 100 mg/kg, dose dependent", "value": "strongly inhibited the growth"}, {"measurement": "mice that failed to develop progressively growing tumours", "setting": "[14]; each treatment group (50 and 100 mg/kg), study terminated on day 60", "value": 60, "unit": "%"}, {"measurement": "Vd", "setting": "[15]; female, Balb/C, plasma, 5 mg/kg", "value": "0.066 L and ~3.3 L/kg"}, {"measurement": "clearance", "setting": "[15]; female, Balb/C, plasma, iv, 5 mg/kg", "value": 0.967, "unit": "mL/min"}, {"measurement": "AUCinf, (iv)", "setting": "[15]; iv 5 mg/kg", "value": 3.753, "unit": "µM·h"}, {"measurement": "Cl, (iv)", "setting": "[15]; iv 5 mg/kg", "value": 0.058, "unit": "L/h"}, {"measurement": "t½, (iv)", "setting": "[15]; iv 5 mg/kg", "value": 50.4, "unit": "min"}, {"measurement": "F % (po)", "setting": "[15]; oral 5 mg/kg", "value": 100, "unit": "%"}, {"measurement": "IC50", "setting": "[6]", "value": "> 25", "unit": "µM"}, {"measurement": "HLM: Percentage of parent compound metabolised", "setting": "[1]", "value": 10, "unit": "%"}, {"measurement": "STAT5 phosphorylation", "setting": "[16]", "value": "inhibition of STAT5 phosphorylation"}, {"measurement": "IC50", "setting": "[7]", "value": "> 50", "unit": "µM"}, {"measurement": "hits from the 386 non-mutant kinases tested", "setting": "[17]", "value": 22}, {"measurement": "LogD7.4", "setting": "[18]", "value": "^cLogD7.4 = 3.84 (experimentally determined value)."}, {"measurement": "MLM: Percentage of parent compound metabolised", "setting": "[19]", "value": 34, "unit": "%"}, {"measurement": "histone H-3 phosphorylation", "setting": "[20]", "value": "clear inhibition"}, {"measurement": "competition for FLT3(D835Y)", "setting": "[21]", "value": "greater than 94%"}, {"measurement": "competition for FLT3(D835H)", "setting": "[22]", "value": "greater than 94%"}, {"measurement": "GI50", "setting": "[23]", "value": 300, "unit": "nM"}]}, {"compound": "Cc1nn(C)cc1-c1nc2c(N3CCN(Cc4ncon4)CC3)c(Cl)cnc2[nH]1", "note": "[Example 2, 3-((4-(6-Chloro-2-(1,3-dimethyl-1H-pyrazol-4-yl)-3H-imidazo[4,5-b]pyridin-7-yl)piperazin-1-yl)methyl)-1,2,4-oxadiazole]", "values": [{"measurement": "HLM: Percentage of parent compound metabolised", "setting": "[1]", "value": 22, "unit": "%"}, {"measurement": "IC50", "setting": "[7]", "value": "> 50", "unit": "µM"}, {"measurement": "MLM: Percentage of parent compound metabolised", "setting": "[19]", "value": 67, "unit": "%"}]}, {"compound": "Cc1nc(CN2CCN(c3c(Cl)cnc4[nH]c(-c5cn(C)nc5C)nc34)CC2)no1", "note": "[Example 3, 3-((4-(6-Chloro-2-(1,3-dimethyl-1H-pyrazol-4-yl)-3H-imidazo[4,5-b]pyridin-7-yl)piperazin-1-yl)methyl)-5-methyl-1,2,4-oxadiazole]", "values": [{"measurement": "IC50", "setting": "[4]", "value": "> 50", "unit": "µM"}, {"measurement": "IC50", "setting": "[5]", "value": "> 50", "unit": "µM"}, {"measurement": "HLM: Percentage of parent compound metabolised", "setting": "[1]", "value": 20, "unit": "%"}, {"measurement": "IC50", "setting": "[7]", "value": "> 50", "unit": "µM"}, {"measurement": "MLM: Percentage of parent compound metabolised", "setting": "[19]", "value": 58, "unit": "%"}, {"measurement": "IC50", "setting": "[24]", "value": 9.5, "unit": "µM"}]}]}
